{
  "source": "patent US10196393B2",
  "about": "“JAK inhibitors containing a 4-membered heterocyclic amide” (THERAVANCE BIOPHARMA R&D IP, LLC, priority 2017, dated 2019)",
  "test_system": "IL-13 induced STAT6 phosphorylation in BEAS-2B human lung epithelial cells",
  "assay": "Cellular JAKI potency assay (AlphaScreen), BEAS-2B",
  "assay_type": "cell-based",
  "conditions": "Homo sapiens, BEAS-2B cells",
  "experimental": "Assay 2: Cellular JAKI Potency Assay\nThe AlphaScreen JAKI cellular potency assay was carried out by measuring interleukin-13 (IL-13, R&D Systems) induced STAT6 phosphorylation in BEAS-2B human lung epithelial cells (ATCC). The anti-STAT6 antibody (Cell Signaling Technologies) was conjugated to AlphaScreen acceptor beads (Perkin Elmer), while the anti-pSTAT6 (pTyr641) antibody (Cell Signaling Technologies) was biotinylated using EZ-Link Sulfo-NHS-Biotin (Thermo Scientific).\nBEAS-2B cells were grown at 37° C. in a 5% CO2 humidified incubator in 50% DMEM/50% F-12 medium (Life Technologies) supplemented with 10% FBS (Hyclone), 100 U/mL penicillin, 100 μg/mL streptomycin (Life Technologies), and 2 mM GlutaMAX (Life Technologies). On day 1 of the assay, cells were seeded at a 7,500 cells/well density in white poly-D-lysine-coated 384-well plates (Corning) with 25 μL medium, and were allowed to adhere overnight in the incubator. On day 2 of the assay, the medium was removed and replaced with 12 μL of assay buffer (Hank's Balanced Salt Solution/HBSS, 25 mM HEPES, and 1 mg/ml bovine serum albumin/BSA) containing dose-responses of test compounds. Compounds were serially diluted in DMSO and then diluted another 1000-fold in media to bring the final DMSO concentration to 0.1%. Cells were incubated with test compounds at 37° C. for 1 h, and followed by the addition of 12 μl of pre-warmed IL-13 (80 ng/mL in assay buffer) for stimulation. After incubating at 37° C. for 30 min, the assay buffer (containing compound and IL-13) was removed, and 10 μL of cell lysis buffer (25 mM HEPES, 0.1% SDS, 1% NP-40, 5 mM MgCl2, 1.3 mM EDTA, 1 mM EGTA, and supplement with Complete Ultra mini protease inhibitors and PhosSTOP from Roche Diagnostics). The plates were shaken at ambient temperature for 30 min before the addition of detection reagents. A mixture of biotin-anti-pSTAT6 and anti-STAT6 conjugated acceptor beads was added first and incubated at ambient temperature for 2 h, followed by the addition of streptavidin conjugated donor beads (Perkin Elmer). After a minimum of 2 h incubation, the assay plates were read on the EnVision plate reader. AlphaScreen luminescence signals were recorded and utilized to calculate the percent inhibition values based on DMSO and background controls.\nFor dose-response analysis, percent inhibition data were plotted vs. compound concentrations, and IC50 values were determined from a 4-parameter robust fit model with the Prism software. Results may also be expressed as the negative logarithm of the IC50 value, pIC50.\nTest compounds having a lower IC50 value or higher pIC50 value in this assay show greater inhibition of IL-13 induced STAT6 phosphorylation.",
  "note": "pIC50: −log10 of the molar value.",
  "data": [
    {"smiles": "CCc1cc(O)c(F)cc1-c1ccc2c(-c3nc4c([nH]3)CN(C(C)C)[C@H](C(=O)N3CC(N(C)C)C3)C4)n[nH]c2c1", "note": "[Example 2, (S)-(3-(dimethylamino)azetidin-1-yl)(2-(6-(2-ethyl-5-fluoro-4-hydroxyphenyl)-1H-indazol-3-yl)-5-isopropyl-4,5,6,7-tetrahydro-3H-imidazo[4,5-c]pyridin-6-yl)methanone]", "values": [
      {"measurement": "pIC50", "value": 8.39}
    ]}
  ]
}
